Activity calls are given as the source filed them. How the calls were made is not given here.
System: CCRIS mutagenicity, Ames/micronucleus/aberration tests
Test: CCRIS mutagenicity studies
[1] = Test System: AMES SALMONELLA TYPHIMURIUM, Strain/Indicator: TA98, Metabolic Activation: NONE, Method: PREINCUBATION
[2] = Test System: AMES SALMONELLA TYPHIMURIUM, Strain/Indicator: TA100, Metabolic Activation: NONE, Method: PREINCUBATION
[3] = Test System: AMES SALMONELLA TYPHIMURIUM, Strain/Indicator: TA98, Metabolic Activation: NONE, Method: STANDARD PLATE
[4] = Test System: AMES SALMONELLA TYPHIMURIUM, Strain/Indicator: TA100, Metabolic Activation: NONE, Method: STANDARD PLATE
[5] = Test System: AMES SALMONELLA TYPHIMURIUM, Strain/Indicator: TA1535, Metabolic Activation: NONE, Method: PREINCUBATION

COc1cc(Cl)c(OC)cc1Cl
mutagenic call (Test System: AMES SALMONELLA TYPHIMURIUM, Strain/Indicator: TA98, Metabolic Activation: HAMSTER, LIVER, S-9, AROCLOR 1254 (5 OR 10%), Method: PREINCUBATION): inactive; negative | mutagenic call (Test System: AMES SALMONELLA TYPHIMURIUM, Strain/Indicator: TA98, Metabolic Activation: HAMSTER, LIVER, S-9, AROCLOR 1254 (30%), Method: PREINCUBATION): inactive; negative | mutagenic call [1]: inactive; negative | mutagenic call (Test System: AMES SALMONELLA TYPHIMURIUM, Strain/Indicator: TA98, Metabolic Activation: RAT, LIVER, S-9, AROCLOR 1254 (30%), Method: PREINCUBATION): inactive; negative | mutagenic call (Test System: AMES SALMONELLA TYPHIMURIUM, Strain/Indicator: TA100, Metabolic Activation: HAMSTER, LIVER, S-9, AROCLOR 1254 (5 OR 10%), Method: PREINCUBATION): inactive; negative | mutagenic call (Test System: AMES SALMONELLA TYPHIMURIUM, Strain/Indicator: TA100, Metabolic Activation: HAMSTER, LIVER, S-9, AROCLOR 1254 (30%), Method: PREINCUBATION): active; positive | mutagenic call [2]: inactive; negative | mutagenic call (Test System: AMES SALMONELLA TYPHIMURIUM, Strain/Indicator: TA100, Metabolic Activation: RAT, LIVER, S-9, AROCLOR 1254 (30%), Method: PREINCUBATION): inactive; negative

CCOC1=CC(=O)C(NC(C)=O)=CC1=O
mutagenic call [3]: active; positive | mutagenic call [4]: active; positive

O.O.O.O.O.O.[Cl-].[Cl-].[Ni+2]
mutagenic call (End Point: In vitro chromosomal aberrations, Test System: Chinese hamster V79 lung cells, Metabolic Activation: None): inactive; negative | mutagenic call [1]: inactive; negative | mutagenic call (Test System: AMES SALMONELLA TYPHIMURIUM, Strain/Indicator: TA98, Metabolic Activation: RAT LIVER S-9, PHENOBARBITAL AND BETA-NAPHTHOFLAVONE, Method: PREINCUBATION): inactive; negative | mutagenic call [2]: inactive; negative | mutagenic call (Test System: AMES SALMONELLA TYPHIMURIUM, Strain/Indicator: TA100, Metabolic Activation: RAT LIVER S-9, PHENOBARBITAL AND BETA-NAPHTHOFLAVONE, Method: PREINCUBATION): inactive; negative | mutagenic call [5]: inactive; negative | mutagenic call (Test System: AMES SALMONELLA TYPHIMURIUM, Strain/Indicator: TA1535, Metabolic Activation: RAT LIVER S-9, PHENOBARBITAL AND BETA-NAPHTHOFLAVONE, Method: PREINCUBATION): inactive; negative | mutagenic call (Test System: AMES SALMONELLA TYPHIMURIUM, Strain/Indicator: TA1537, Metabolic Activation: NONE, Method: PREINCUBATION): inactive; negative | mutagenic call (Test System: AMES SALMONELLA TYPHIMURIUM, Strain/Indicator: TA1537, Metabolic Activation: RAT LIVER S-9, PHENOBARBITAL AND BETA-NAPHTHOFLAVONE, Method: PREINCUBATION): inactive; negative | mutagenic call (Test System: AMES SALMONELLA TYPHIMURIUM, Strain/Indicator: TA1538, Metabolic Activation: NONE, Method: PREINCUBATION): inactive; negative | mutagenic call (Test System: AMES SALMONELLA TYPHIMURIUM, Strain/Indicator: TA1538, Metabolic Activation: RAT LIVER S-9, PHENOBARBITAL AND BETA-NAPHTHOFLAVONE, Method: PREINCUBATION): inactive; negative | mutagenic call (Test System: CHINESE HAMSTER V-79, Strain/Indicator: V-79/(HGPRT), Metabolic Activation: NONE): active; positive | mutagenic call (Test System: E.COLI, Strain/Indicator: WP2UVRA, Metabolic Activation: NONE, Method: PREINCUBATION): inactive; negative | mutagenic call (Test System: E.COLI, Strain/Indicator: WP2UVRA, Metabolic Activation: RAT LIVER S-9, PHENOBARBITAL AND BETA-NAPHTHOFLAVONE, Method: PREINCUBATION): inactive; negative

CCOP(=O)(OCC)Oc1nc(Cl)c(Cl)cc1Cl
mutagenic call [3]: inactive; negative | mutagenic call (Test System: AMES SALMONELLA TYPHIMURIUM, Strain/Indicator: TA98, Metabolic Activation: RAT, LIVER, S-9, Method: STANDARD PLATE): inactive; negative | mutagenic call [4]: inactive; negative | mutagenic call (Test System: AMES SALMONELLA TYPHIMURIUM, Strain/Indicator: TA100, Metabolic Activation: RAT, LIVER, S-9, Method: STANDARD PLATE): inactive; negative

O=P(O)(OCC(Br)CBr)OCC(Br)CBr (stereo not drawn)
mutagenic call (Test System: AMES SALMONELLA TYPHIMURIUM, Strain/Indicator: TA100, Metabolic Activation: RAT, LIVER, S-9, AROCLOR 1254, Method: STANDARD PLATE): active; positive | mutagenic call (Test System: AMES SALMONELLA TYPHIMURIUM, Strain/Indicator: TA1535, Metabolic Activation: RAT, LIVER, S-9, AROCLOR 1254, Method: STANDARD PLATE): active; positive

C(CCOCC1CO1)COCC1CO1 (stereo not drawn)
mutagenic call (Test System: AMES SALMONELLA TYPHIMURIUM, Strain/Indicator: TA100, Metabolic Activation: HAMSTER, LIVER, S-9, AROCLOR 1254 (10%), Method: PREINCUBATION): active; positive | mutagenic call [2]: active; positive | mutagenic call (Test System: AMES SALMONELLA TYPHIMURIUM, Strain/Indicator: TA100, Metabolic Activation: RAT, LIVER, S-9, AROCLOR 1254 (10%), Method: PREINCUBATION): active; positive | mutagenic call (Test System: AMES SALMONELLA TYPHIMURIUM, Strain/Indicator: TA1535, Metabolic Activation: HAMSTER, LIVER, S-9, AROCLOR 1254 (10%), Method: PREINCUBATION): active; positive | mutagenic call [5]: active; positive | mutagenic call (Test System: AMES SALMONELLA TYPHIMURIUM, Strain/Indicator: TA1535, Metabolic Activation: RAT, LIVER, S-9, AROCLOR 1254 (10%), Method: PREINCUBATION): active; positive

CN(C)C(=O)Nc1cccc(C(F)(F)F)c1
mutagenic call (End Point: IN VITRO CHROMOSOMAL ABERRATIONS, Test System: CHO-LB CELLS, Metabolic Activation: NONE): inactive; negative | mutagenic call (End Point: IN VITRO CHROMOSOMAL ABERRATIONS, Test System: CHO-LB CELLS, Metabolic Activation: RAT, LIVER, S-9, AROCLOR 1254): inactive; negative | mutagenic call (Test System: AMES SALMONELLA TYPHIMURIUM, Strain/Indicator: TA97, Metabolic Activation: HAMSTER, LIVER, S-9, AROCLOR 1254 (10 OR 30%), Method: PREINCUBATION): inactive; negative | mutagenic call (Test System: AMES SALMONELLA TYPHIMURIUM, Strain/Indicator: TA97, Metabolic Activation: NONE, Method: PREINCUBATION): inactive; negative | mutagenic call (Test System: AMES SALMONELLA TYPHIMURIUM, Strain/Indicator: TA97, Metabolic Activation: RAT, LIVER, S-9, AROCLOR 1254 (10 OR 30%), Method: PREINCUBATION): inactive; negative | mutagenic call (Test System: AMES SALMONELLA TYPHIMURIUM, Strain/Indicator: TA98, Metabolic Activation: HAMSTER, LIVER, S-9, AROCLOR 1254 (10 OR 30%), Method: PREINCUBATION): inactive; negative | mutagenic call [1]: inactive; negative | mutagenic call (Test System: AMES SALMONELLA TYPHIMURIUM, Strain/Indicator: TA98, Metabolic Activation: RAT, LIVER, S-9, AROCLOR 1254 (10 OR 30%), Method: PREINCUBATION): inactive; negative | mutagenic call (Test System: AMES SALMONELLA TYPHIMURIUM, Strain/Indicator: TA100, Metabolic Activation: HAMSTER, LIVER, S-9, AROCLOR 1254 (10 OR 30%), Method: PREINCUBATION): inactive; negative | mutagenic call [2]: inactive; negative | mutagenic call (Test System: AMES SALMONELLA TYPHIMURIUM, Strain/Indicator: TA100, Metabolic Activation: RAT, LIVER, S-9, AROCLOR 1254 (10 OR 30%), Method: PREINCUBATION): inactive; negative | mutagenic call (Test System: AMES SALMONELLA TYPHIMURIUM, Strain/Indicator: TA1535, Metabolic Activation: HAMSTER, LIVER, S-9, AROCLOR 1254 (10 OR 30%), Method: PREINCUBATION): inactive; negative | mutagenic call [5]: inactive; negative | mutagenic call (Test System: AMES SALMONELLA TYPHIMURIUM, Strain/Indicator: TA1535, Metabolic Activation: RAT, LIVER, S-9, AROCLOR 1254 (10 OR 30%), Method: PREINCUBATION): inactive; negative | mutagenic call (Test System: AMES SALMONELLA TYPHIMURIUM, Strain/Indicator: TA1535, Metabolic Activation: RAT, LIVER, S-9, Method: STANDARD PLATE): active; positive | mutagenic call (Test System: E. COLI, Strain/Indicator: WP2 UVRA, Metabolic Activation: HAMSTER, LIVER, S-9, AROCLOR 1254, Method: STANDARD PLATE): inactive; negative | mutagenic call (Test System: E. COLI, Strain/Indicator: WP2 UVRA, Metabolic Activation: HAMSTER, LIVER, S-9, Method: STANDARD PLATE): inactive; negative | mutagenic call (Test System: E. COLI, Strain/Indicator: WP2 UVRA, Metabolic Activation: MOUSE, LIVER, S-9, AROCLOR 1254, Method: STANDARD PLATE): inactive; negative | mutagenic call (Test System: E. COLI, Strain/Indicator: WP2 UVRA, Metabolic Activation: MOUSE, LIVER, S-9, Method: STANDARD PLATE): inactive; negative | mutagenic call (Test System: E. COLI, Strain/Indicator: WP2 UVRA, Metabolic Activation: NONE, Method: STANDARD PLATE): inactive; negative | mutagenic call (Test System: E. COLI, Strain/Indicator: WP2 UVRA, Metabolic Activation: RAT, LIVER, S-9, AROCLOR 1254, Method: STANDARD PLATE): inactive; negative | mutagenic call (Test System: E. COLI, Strain/Indicator: WP2 UVRA, Metabolic Activation: RAT, LIVER, S-9, Method: STANDARD PLATE): inactive; negative
